Experimental data: publication PMC10578023 (Cell Communication and Signaling : CCS, 2023)

What was measured:
[1] = biological target: T1, human TYK2 pseudokinase domain (JH2) (Homo sapiens, UniProt P29597); assay: TYK2 pseudokinase domain (JH2) binding assay, HTRF tracer competition
T1 construct: was added to the recombinant TYK2 pseudokinase domain
Procedure: An assay that measures the ability of a compound to bind to the TYK2 pseudokinase domain through competition with a tracer was employed. First, human polyhistidine-tag (his-tagged) TYK2 pseudokinase was added to different concentrations of QL-1200186. […] After 1 h at RT, the homogeneous time-resolved fluorescence (HTRF) signal was measured on a plate reader (Envision™; PerkinElmer, Waltham, MA, USA).

[2] = Caco-2 permeability assay; type: in vitro ADME
Procedure: (§1) The ADME properties of QL-1200186 in vitro were measured by the following assays: Caco-2 permeability assay, CYP inhibition assay, protein binding assay, and liver microsome assay. Each assay was performed as previously described.

JAK2/JAK2 [3] = assay: GM-CSF-stimulated pSTAT5 in U937 cells; type: cell-based, human
Procedure: With respect to GM-CSF-stimulated JAK2 activation in U937 cells (Cobioer Biosciences, CBP60277), after 1 h of treatment with QL-1200186, U937 cells were stimulated with GM-CSF (20 ng/mL; C003; Novoprotein, Suzhou, China) for 15 min.
(§2) The stimulations stated above were terminated with prewarmed Lyse/Fix Buffer (558,049; BD Biosciences, San Jose, CA, USA) for 10 min. Cells were stained with an anti-cluster of differentiation (CD)3 fluorescein isothiocyanate (FITC) antibody (required for PBMCs but not for the other cell types), washed, and permeabilized on ice using Perm III Buffer (558,050; BD Biosciences) prior to staining with an Alexa Fluor 647 anti-phosphorylated (p)STAT5 (pY694) antibody for 30 min and analyzed by flow cytometry. Phosphorylation of STAT5 was quantified by the median fluorescence intensity (MFI) after gating on the CD3-positive population.

CYP450 2D6 = CYP450 2D6 (Homo sapiens, UniProt P10635); assay: CYP inhibition assay; type: in vitro ADME
CYP450 2D6, sequence (P10635 whole entry): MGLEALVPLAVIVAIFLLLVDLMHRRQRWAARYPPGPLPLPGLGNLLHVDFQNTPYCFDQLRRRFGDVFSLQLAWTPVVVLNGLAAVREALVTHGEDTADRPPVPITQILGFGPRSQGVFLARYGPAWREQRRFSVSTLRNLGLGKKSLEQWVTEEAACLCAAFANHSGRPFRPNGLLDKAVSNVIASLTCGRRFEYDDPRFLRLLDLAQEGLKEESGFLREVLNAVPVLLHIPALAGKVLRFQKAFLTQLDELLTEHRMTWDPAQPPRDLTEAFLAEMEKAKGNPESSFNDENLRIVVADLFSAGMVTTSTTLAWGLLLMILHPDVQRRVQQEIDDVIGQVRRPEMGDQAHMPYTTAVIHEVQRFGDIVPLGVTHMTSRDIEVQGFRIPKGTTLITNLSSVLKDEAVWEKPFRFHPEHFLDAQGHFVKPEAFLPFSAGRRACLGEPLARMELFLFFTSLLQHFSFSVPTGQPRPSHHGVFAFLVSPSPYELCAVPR
Procedure: as §1

CYP450 3A4/5 = assay: CYP inhibition assay; type: in vitro ADME
Procedure: as §1

CYP450 2C9 = CYP450 2C9 (Homo sapiens, UniProt P11712); assay: CYP inhibition assay; type: in vitro ADME
CYP450 2C9, sequence (P11712 whole entry): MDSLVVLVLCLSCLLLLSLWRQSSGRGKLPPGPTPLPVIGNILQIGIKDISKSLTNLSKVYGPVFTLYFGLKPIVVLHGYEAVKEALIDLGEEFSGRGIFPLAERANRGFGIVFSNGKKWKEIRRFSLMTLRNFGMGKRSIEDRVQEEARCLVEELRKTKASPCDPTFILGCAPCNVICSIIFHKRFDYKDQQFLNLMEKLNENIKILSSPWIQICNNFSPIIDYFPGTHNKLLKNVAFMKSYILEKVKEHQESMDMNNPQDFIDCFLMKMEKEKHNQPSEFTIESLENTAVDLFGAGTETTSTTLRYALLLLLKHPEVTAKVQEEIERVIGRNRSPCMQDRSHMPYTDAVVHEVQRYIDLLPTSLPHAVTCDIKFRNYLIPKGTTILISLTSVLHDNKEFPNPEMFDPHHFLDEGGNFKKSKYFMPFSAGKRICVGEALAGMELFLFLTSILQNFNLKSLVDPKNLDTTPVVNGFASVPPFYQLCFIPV
Procedure: as §1

CYP450 2C19 = CYP450 2C19 (Homo sapiens, UniProt P33261); assay: CYP inhibition assay; type: in vitro ADME
CYP450 2C19, sequence (P33261 whole entry): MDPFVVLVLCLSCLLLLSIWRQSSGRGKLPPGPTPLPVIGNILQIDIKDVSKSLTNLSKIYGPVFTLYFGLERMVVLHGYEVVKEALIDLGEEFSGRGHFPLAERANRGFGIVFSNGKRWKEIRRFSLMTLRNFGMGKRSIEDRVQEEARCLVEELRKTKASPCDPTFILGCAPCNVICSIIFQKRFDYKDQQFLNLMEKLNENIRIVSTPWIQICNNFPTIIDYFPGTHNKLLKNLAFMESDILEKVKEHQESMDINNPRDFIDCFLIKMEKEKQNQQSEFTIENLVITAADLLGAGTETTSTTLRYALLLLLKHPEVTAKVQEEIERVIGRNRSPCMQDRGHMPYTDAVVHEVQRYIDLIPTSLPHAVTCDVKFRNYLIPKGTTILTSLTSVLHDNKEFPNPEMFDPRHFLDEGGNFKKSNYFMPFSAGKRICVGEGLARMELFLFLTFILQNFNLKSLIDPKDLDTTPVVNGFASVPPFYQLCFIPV
Procedure: as §1

[4] = system: imiquimod-induced psoriasis-like skin inflammation; assay: Imiquimod-induced mouse model of psoriasis (PASI); type: in vivo, mice
Procedure: Healthy male BALB/c mice (18–20 g) were divided randomly into three groups of eight according to body weight using Excel™ (Office™; Microsoft). After 1 week of adaptive feeding, mice received a daily topical dose of 62.5 mg of 5% imiquimod cream ([…]; Aldara®; 3 M Pharmaceuticals, Maplewood, MN, USA) on the shaved back and left ear for 7 consecutive days. Control mice were treated similarly with vehicle cream (Vaseline lanette creme; Fagron, Amsterdam, the Netherlands). Mice in the treatment group were given QL-1200186 (5 mg/kg or 1 mg/kg) orally twice a day (p.o., b.i.d.).
The Psoriasis Area and Severity Index (PASI) consists of erythema, scaling and skin thickness measurements. Mice were evaluated from day 1 when imiquimod was given for 7 consecutive days. The thickness of the mouse skin was measured using a micrometer. The PK parameters were also measured.

JAK1/JAK3 = assay: IL-2-stimulated pSTAT5 in human whole blood; type: cell-based
Procedure: With respect to IL-2-stimulated JAK1/3 activation in human whole blood cells, whole blood (50 μL) was preincubated with compounds for 30 min and then stimulated with IL-2 (20 ng/mL) for 15 min.
as §2

JAK1 JH2 domain = JAK1 JH2 domain (Homo sapiens, UniProt P23458); assay: JAK1 JH2 binding assay
JAK1 JH2 domain, sequence (P23458 583-855 limits assumed): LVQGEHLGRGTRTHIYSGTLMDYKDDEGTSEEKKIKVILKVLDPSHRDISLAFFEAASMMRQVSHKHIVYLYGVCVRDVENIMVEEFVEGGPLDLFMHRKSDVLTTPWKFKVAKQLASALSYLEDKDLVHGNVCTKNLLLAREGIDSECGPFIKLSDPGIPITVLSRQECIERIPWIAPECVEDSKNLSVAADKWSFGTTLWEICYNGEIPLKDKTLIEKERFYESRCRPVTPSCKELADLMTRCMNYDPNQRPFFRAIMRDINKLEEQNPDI

JAK2/JAK2 [5] = assay: TPO-stimulated pSTAT3/STAT5 in platelets of human whole blood; type: cell-based
Procedure: Stimulation was terminated by adding Lyse/Fix buffer. Staining with BUV786 mouse anti-human CD61 antibody (744384; BD Biosciences) was carried out, followed by washing, permeabilization and staining with PE mouse anti-human STAT3 antibody (651004; BD Biosciences) and APC mouse anti-human STAT5 antibody (562076; BD Biosciences), as described above. The expression of p-STAT3 and STAT5 was quantified by the MFI after the number of CD61-positive platelets was optimized.

[6] = system: panel of 207 kinase proteins; assay: Kinase selectivity panel, ADP-Glo kinase assay; type: biochemical, human; settings: 1 μM
Procedure: The selectivity of QL-1200186 was measured using a panel of 207 kinase proteins. QL-1200186 (final concentration = 1 μM) was placed in a 384-well plate. Different kinase solutions were configured in kinase buffer, HEPES (50 mM), MgCl2 (10 mM), 0.01% Brij, dithiothreitol (2 mM), and then transferred to 384-well plates. After incubation for 10 min at RT, the substrate and adenosine triphosphate were added, and the reaction was allowed to continue for 60 min. Kinase selectivity was determined by the ADP-Glo™ Kinase Assay (V9103; Promega, Fitchburg, WI, USA). Finally, a microplate reader (BMG Labtech, Ortenberg, Germany) was used to measure the luminescence signal. After data analysis, heatmaps and kinase selection trees were drawn using Prism 8.0.2 (GraphPad, La Jolla, CA, USA) and KinMap (www.kinmap.org/), respectively.

TYK2/JAK1 = assay: IFNα-stimulated pSTAT5 in human PBMC (CD3+), FACS; type: cell-based
Procedure: With regard to IFNα-stimulated phosphorylation of STAT5 in human peripheral blood mononuclear cells (PBMCs), after incubation with QL-1200186 for 1 h, human PBMCs were stimulated with recombinant human IFNα (1000 U/mL; 11200–2; PBL Assay Science) for 30 min.
as §2

CYP450 1A2 = CYP450 1A2 (Homo sapiens, UniProt P05177); type: in vitro ADME
CYP450 1A2, sequence (P05177 whole entry): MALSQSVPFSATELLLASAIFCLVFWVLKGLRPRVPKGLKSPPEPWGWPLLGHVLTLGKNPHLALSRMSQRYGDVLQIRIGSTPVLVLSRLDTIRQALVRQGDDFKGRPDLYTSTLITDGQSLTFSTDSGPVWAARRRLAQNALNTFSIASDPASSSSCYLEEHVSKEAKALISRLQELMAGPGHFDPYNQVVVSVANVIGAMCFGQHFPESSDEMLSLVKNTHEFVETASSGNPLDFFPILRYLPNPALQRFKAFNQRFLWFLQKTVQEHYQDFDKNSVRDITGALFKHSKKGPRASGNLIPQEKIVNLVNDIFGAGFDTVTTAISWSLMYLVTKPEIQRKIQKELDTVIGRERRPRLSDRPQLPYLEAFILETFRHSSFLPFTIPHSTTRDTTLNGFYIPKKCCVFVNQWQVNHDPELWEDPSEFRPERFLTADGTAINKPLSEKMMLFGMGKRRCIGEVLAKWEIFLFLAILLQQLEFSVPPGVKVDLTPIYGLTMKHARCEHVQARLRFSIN
Procedure: as §1

T1 sequence (P29597 589-875 limits assumed): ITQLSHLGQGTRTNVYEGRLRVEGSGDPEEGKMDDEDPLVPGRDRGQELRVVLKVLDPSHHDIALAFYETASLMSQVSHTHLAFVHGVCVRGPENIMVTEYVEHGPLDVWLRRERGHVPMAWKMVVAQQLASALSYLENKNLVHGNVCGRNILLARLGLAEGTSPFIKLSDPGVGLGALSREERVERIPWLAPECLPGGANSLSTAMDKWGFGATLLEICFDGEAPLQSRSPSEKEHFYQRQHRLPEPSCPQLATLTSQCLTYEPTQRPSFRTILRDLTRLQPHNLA

CNC(=O)c1cnc2cc1Nc1cc(cc(-c3ccn(C)n3)c1OC)CCOCc1cccc(n1)N2 [QL-1200186, 5^6-methoxy-N-methyl-5^5-(1-methyl-1H-pyrazol-3-yl)-8-oxa-2,4-diaza-1(2,6),3(2,4)-dipyridina-5(1,3)-benzenacyclononaphane-3^5-carboxamide]
Selectivity fold (TYK2/JAK1) ([1]; TYK2 JH2 over JAK1 JH2 binding): 164 fold
IC50 ([1]; recombinant TYK2 JH2 domain): 0.06 nM
Caco-2 ER (efflux ratio) [2]: 1.4
GM-CSF-pSTAT5 in U937 (JAK2/JAK2) inhibition (JAK2/JAK2 [3]; @10μM): no inhibition @10μM
IC50 (JAK2/JAK2 [3]; JAK2/JAK2-dependent, read-out: GM-CSF-stimulated STAT5 phosphorylation IC50): > 10000 nM
IC50 (CYP450 2D6): > 50000 nM
IC50 (CYP450 3A4/5): > 50000 nM
IC50 (CYP450 2C9): 6400 nM
IC50 (CYP450 2C19): 2900 nM
psoriasis severity according to the thickness score ([4]; day 7): significantly alleviated psoriasis severity
psoriasis-like inflammatory symptoms (erythema, scaling, thickening; PASI) ([4]; vs imiquimod group, p.o., b.i.d., n = 8): significantly improved psoriasis-like inflammatory symptoms
activity in IL-2-mediated JAK1/JAK3 signaling (JAK1/JAK3): no activity
IC50 (JAK1 JH2 domain): 9.85 nM
TPO-pSTAT3/STAT5 in human whole blood (JAK2/JAK2) inhibition (JAK2/JAK2 [5]; @10μM): no inhibition @10μM
activity in thrombopoietin (TPO)-induced JAK2/JAK2 signaling (JAK2/JAK2 [5]; human whole blood): no activity
inhibition rates for all 207 kinases tested [6]: below 50%
IC50 (TYK2/JAK1): 7.26 nM
IC50 (CYP450 1A2): > 50000 nM
